Patent US20260250337A1, “HYBRID ANTIMICROBIAL PEPTIDES” (UNIVERSIDADE FEDERAL DO ABC, priority 2023, published 2026)
Entries after “also recorded” stand apart in the source; their conditions may differ. No end group written: not given here.

What was measured:
[1] = test system: M. luteus A270; assay: Liquid growth inhibition assay, MIC; format: cell-based, Micrococcus luteus; conditions: 37° C., 18 h
Description: (§1) Initially, the antimicrobial activity was determined by liquid growth inhibition assays, as previously described by Pedron et al.^62. Briefly, Peptone Broth and Potato Dextrose Broth (Invitrogen) were used for antibacterial and antifungal assays, respectively. Two-fold serial dilutions of peptides (0.09-50 μmol L^−1) and microorganisms (Serratia marcescens ATCC 4112, Enterobacter cloacae β-12, Micrococcus luteus A270, Bacillus megaterium ATCC 10778, Bacillus subtilis ATCC 6633, Candida albicans MDM8, and Candida tropicalis IOC 4560) were incubated at 37° C. for 18 h (for bacteria) or 24 h (for fungi), and microbial growth was assessed by absorbance measurements at 595 nm. Experiments were performed in three biological repeats.

[2] = test system: S. epidermidis ATCC 12228; assay: Liquid growth inhibition assay, MIC; format: cell-based; conditions: 37° C., 18 h
[3] = test system: B. megaterium ATCC 10778; assay: Liquid growth inhibition assay, MIC; format: cell-based, Bacillus megaterium; conditions: 37° C., 18 h
Description: as §1

[4] = test system: S. marcescens ATCC 4112; assay: Liquid growth inhibition assay, MIC; format: cell-based, Serratia marcescens; conditions: 37° C., 18 h
Description: as §1

[5] = test system: E. cloacae β-12; assay: Liquid growth inhibition assay, MIC; format: cell-based, Enterobacter cloacae; conditions: 37° C., 18 h
Description: as §1

[6] = test system: C. albicans MDM8; assay: Liquid growth inhibition assay, MIC (antifungal); format: cell-based, Candida albicans; conditions: 37° C., 24 h
Description: as §1

[7] = test system: C. tropicalis IOC 4560; assay: Liquid growth inhibition assay, MIC (antifungal); format: cell-based, Candida tropicalis; conditions: 37° C., 24 h
Description: as §1

[8] = test system: human erythrocytes; assay: Hemolytic activity assay; format: cell-based; conditions: for Hemolytic activity, concentration of peptide needed to kill 10% of red blood cells / MHC: human erythrocytes, 1 h; for MHC: room temperature, concentration with approximately 0% of hemolytic activity
Description: Method. Assays against freshly collected human erythrocytes were performed following protocols described by Pedron et al. 62. Briefly, peptide aliquots at concentrations ranging from 0.1 to 100 μmol L−1 were incubated with a suspension of erythrocytes at room temperature for 1 h. The samples were then centrifuged, and the absorbance of the supernatant was measured at 405 nm. The MHC (maximal non-hemolytic concentration) was determined as the maximal concentration at which 100% of the erythrocytes were viable. The surfactant SDS and PBS buffer were used as positive88, 89 and negative controls, respectively. Sodium heparin was used as an anticoagulant when collecting human blood. Three biological repeats were performed.

[9] = test system: Plasmodium gallinaceum sporozoites; assay: Antiplasmodial activity, fluorescence microscopy; format: cell-based; conditions: for P. gallinaceum (% sporozoites at 0.8 μmol L^−1): fluorescent (propidium iodide stained) sporozoites, 37° C., 1 h; for antiplasmodial activity: P. gallinaceum sporozoites, concentration range tested
Description: Method. The activity of the peptides against Plasmodium gallinaceum sporozoites was determined by fluorescence microscopy, as previously described by Silva et. al.^83. Briefly, 9,000 sporozoites were isolated from the glands of infected Aedes aegypti mosquitos and incubated with serially diluted peptides (ranging from 0.1 to 1.6 μmol L^−1) at 37° C. for 1 h. A PBS solution and the surfactant digitonin^84, 85 were used as negative and positive controls, respectively. Propidium iodide was used to stain dead cells. Assays were executed using fluorescence microscopy. Three biological repeats each with three different mosquito batches (n=9) were used.

[10] = Circular dichroism, helical fraction (Lifson-Roig); format: physicochemical; conditions: peptide 50 μmol L^−1; for Helical fraction (fH) PBS: PBS 10 mmol L^−1, pH 7.4; for Helical fraction (fH) POPC: POPC 10 mmol L^−1; for Helical fraction (fH) POPC:DOPE: POPC:DOPE 3:1, mol:mol; for Helical fraction (fH) POPC:DOPE / Helical fraction (fH) POPC:POPG: 10 mmol L^−1; for Helical fraction (fH) POPC:POPG: POPC:POPG 3:1, mol:mol; for Helical fraction (fH) SDS: SDS 20 mmol L^−1 in water; for Helical fraction (fH) TFE/Water: TFE in water (3:2, v:v)
Description: Method. Circular dichroism (CD) assays were performed with a Spectropolarimeter Jasco Mod. J-815 (JascoCorp). CD spectra were obtained in Far-UV (195-260 nm), and analyzed in the following solutions: water, 2,2,2-trifluoroethanol (TFE) in water (3:2, v:v), phosphate buffer saline (PBS, 10 mmol L^−1, pH 7.4), sodium dodecyl sulfate (SDS 20 mmol L^−1) in water, palmitoyloleoylphosphatidylcholine (POPC; 10 mmol L^−1), palmitoyloleoylphosphatidylcholine:dioleylphosphatidylethanolamine (POPC:DOPE; 3:1, mol:mol, 10 mmol L^−1) and palmitoyloleoylphosphatidylcholine:palmitoyloleoylphosphatidylglycerol (POPC:POPG; 3:1, mol:mol, 10 mmol L^−1) at a peptide concentration of 50 μmol L^−1. These experiments were performed as described in detail by Pedron et al.^62.

[11] = Resistance to degradation in fetal bovine serum; format: in vitro ADME; conditions: fetal bovine serum 25% in water, 37° C.; for remaining at 0.5 h: 30 min, read-out: remaining peptide, 30 min; for remaining at 1 h: read-out: remaining peptide, 1 h; for remaining at 2 h: read-out: remaining peptide, 2 h; for remaining at 4 h: read-out: remaining peptide, 4 h
Description: The resistance to proteolytic degradation of the hybrid peptides was assessed by exposing them for 6 h to serum peptidases in a fetal bovine serum solution^68, 69 (FIG. 5a and Table S4). The peptide degradation kinetics were calculated by integrating the peak area of the peak in relation to the peptide at the beginning of the experiment (time=0) and comparing it to the integrated peak area relative to the peptides after exposure to the enzymes at time points: 0.5, 1, 2, 4, and 6 h (FIG. 5a and Table S4). […] However, AV was resistant to degradation against proteases, with almost 40% peptide content remaining after 4 h of exposure (FIG. 5a and Table S4). […] VP was almost entirely degraded after 30 min (22% of peptide remaining). […] D-amino acid substitutions have been used as alternatives to prevent the degradation of AMPs. For example, Qiu et. al. described a protonectin analog with a D-Lys residue in position 10 as an alternative to protonectin; this analog is not degraded and has higher antimicrobial activity against bacteria and fungi than the original peptide.
Methods. Stability assays were performed following the protocol described by Torres et al.^71. Briefly, a peptide solution was added to GIBCO fetal bovine serum diluted to 25% in water and kept at 37° C. The degradation kinetics were monitored by liquid chromatography and the percentage of peptide remaining was calculated by integrating the peptide peak area. The experiments were performed as three independent replicates, and aliquots were taken at 0, 0.5, 1, 2, 4, and 6 h.

[12] = test system: bacterial strains; assay: Antimicrobial activity over the panel of strains; format: cell-based; conditions: range of concentrations tested
Description: as §1
Method. The minimal inhibitory concentration (MIC) against the ESKAPE pathogens was determined using the broth microdilution method^81, 82 in Luria-Bertani (LB) medium. The MIC value was defined as the lowest concentration of peptide at which no microbial growth was observed. A. baumannii ATCC19606, E. coli ATCC11775, E. coli AIC221, E. coli AIC222, K. pneumoniae ATCC13883, S. aureus ATCC12600 P. aeruginosa PAO1, and P. aeruginosa PA14 were incubated on agar plates, and after 24 h, three isolated colonies were inoculated to 5 mL of Luria-Bertani (LB) broth and maintained at 37° C. overnight with shaking. Peptides were then added to 96-well polystyrene microtiter plates at concentrations ranging from 0 to 128 μmol L^−1, and 5×10^5 CFU mL^−1 of each bacterium was inoculated in each well. The plates were incubated at 37° C. for 24 h. Bacterial growth was measured using a microplate reader at 610 nm. Three independent replicates were performed.

[13] = bovine, fetal bovine serum, 25% in water
[14] = bovine, fetal bovine serum, 25% in water, 4 h

GLGALLNVIKSGL-NH2 [AV, Gly-Leu-Gly-Ala-Leu-Len-Asn-Val-Ile-Lys-Ser-Gly-Leu]
MIC M. luteus A270 [1]: 6.3 µM | MIC S. epidermidis ATCC 12228 [2]: >50 µM | MIC B. megaterium ATCC 10778 [3]: >50 µM | MIC S. marcescens ATCC 4112 [4]: 50 µM | MIC E. cloacae β-12 [5]: >50 µM | MIC C. albicans MDM8 [6]: 50 µM | MIC C. tropicalis IOC 4560 [7]: 50 µM | hemolytic activity ([8]; 0.1 to 100 μmol L^−1): minimal hemolytic activity | Hemolytic activity, concentration of peptide needed to kill 10% of red blood cells [8]: 100 µmol/L | MHC [8]: >100 µmol/L | P. gallinaceum (% sporozoites at 0.8 μmol L^−1) [9]: 90% | antiplasmodial activity [9]: exhibited antiplasmodial activity | Helical fraction (fH) PBS [10]: 0.05 | Helical fraction (fH) POPC [10]: 0.03 | Helical fraction (fH) POPC:DOPE [10]: 0.08 | Helical fraction (fH) POPC:POPG [10]: 0.04 | Helical fraction (fH) SDS [10]: 0.31 | Helical fraction (fH) TFE/Water [10]: 0.42 | Helical fraction (fH) Water [10]: 0.08 | remaining at 0.5 h [11, 13]: ~40% | remaining at 1 h [11, 13]: ~40% | remaining at 2 h [11, 13]: ~40% | remaining at 4 h [11, 14]: ~40% | remaining peptide, 4 h ([11]; 4 h): ~40% | antimicrobial activity [12]: lower antimicrobial activities than the corresponding template peptides

SLGALINVLKSGG-NH2 [DV, Ser-Leu-Gly-Ala-Leu-Ile-Asn-Val-Leu-Lys-Ser-Gly-Gly]
MIC M. luteus A270 [1]: >50 µM | MIC S. epidermidis ATCC 12228 [2]: >50 µM | MIC B. megaterium ATCC 10778 [3]: >50 µM | MIC S. marcescens ATCC 4112 [4]: >50 µM | MIC E. cloacae β-12 [5]: >50 µM | MIC C. albicans MDM8 [6]: >50 µM | MIC C. tropicalis IOC 4560 [7]: >50 µM | Hemolytic activity, concentration of peptide needed to kill 10% of red blood cells [8]: 0.1 µmol/L | MHC [8]: 0.1 µmol/L | P. gallinaceum (% sporozoites at 0.8 μmol L^−1) [9]: 31% | antiplasmodial activity [9]: did not exhibit significant antiplasmodial activity; also recorded: did not present antiplasmodial activity | Helical fraction (fH) PBS [10]: 0.12 | Helical fraction (fH) POPC [10]: 0.08 | Helical fraction (fH) POPC:DOPE [10]: 0.11 | Helical fraction (fH) POPC:POPG [10]: 0.41 | Helical fraction (fH) SDS [10]: 0.62 | Helical fraction (fH) TFE/Water [10]: 0.90 | Helical fraction (fH) Water [10]: 0.11 | remaining at 0.5 h [11, 13]: ~50% | remaining at 1 h [11, 13]: ~50% | remaining at 2 h [11, 13]: ~50% | remaining at 4 h [11, 14]: ~50% | remaining at 6 h ([11]; bovine, fetal bovine serum, 25% in water, 6 h, read-out: remaining peptide, 6 h): ~50% | antimicrobial activity [12]: No antimicrobial activities were observed; also recorded: did not exhibit antimicrobial activity
